Values quoted from earlier work, collected in PubChem BioAssay AID1259409 (Chemical Carcinogenesis Research Information System (CCRIS), 2018).

System: rodent chemically induced tumor inhibition, incidence and multiplicity
Assay: CCRIS tumor inhibitor studies
Conditions: Route [Inhibitor]: DERMAL, Species: MOUSE, Target Tissue: Type of Lesion: SKIN: PAPILLOMA, Promoter: 12-O-TETRADECANOYLPHORBOL-13-ACETATE, 16561-29-8

For O=c1cc(-c2ccccc2)oc2c1ccc1ccccc12, which “tumour outcome (control, treated, inhibition, significance)” value (Carcinogen: 7,14-DIMETHYLBENZO[A,H]ANTHRACENE, 35335-07-0, Dose [Inhibitor]: 0, 370 NMOL IN 0.2 ML ACETONE APPLIED 5 MIN PRIOR TO CARCINOGEN (STUDY DURATION: 21 WK), Strain/Sex: SENCAR/FEMALE, Dose [Carcinogen]: 47.5 NMOL IN 0.2 ML ACETONE ONCE) is on record?
The value was 97%, 96%, 1%, not calculated.

And the “tumour outcome (control, treated, inhibition, significance)” value (Carcinogen: 7,14-DIMETHYLBENZO[A,H]ANTHRACENE, 35335-07-0, Dose [Inhibitor]: 0, 3700 NMOL IN 0.2 ML ACETONE APPLIED 5 MIN PRIOR TO CARCINOGEN (STUDY DURATION: 21 WK), Strain/Sex: SENCAR/FEMALE, Dose [Carcinogen]: 47.5 NMOL IN 0.2 ML ACETONE ONCE)?
Its value is 97%, 97%, 0%.

What about the “tumour outcome (control, treated, inhibition, significance)” value (Carcinogen: 7-(BROMOMETHYL)BENZ[A]ANTHRACENE, 24961-39-3, Dose [Inhibitor]: 100 UG IN 0.2 ML ACETONE ONCE 5 MIN BEFORE CARCINOGEN TREATMENT (STUDY DURATION: 31 WK), Strain/Sex: CD-1/FEMALE, Dose [Carcinogen]: 3125 NMOL IN 0.2 ML ACETONE ONCE) of the same compound?
Its value is 55%, 30%, 45%, not calculated.

What about the “tumour outcome (control, treated, inhibition, significance)” value (Carcinogen: 7-BROMOMETHYL-12-METHYLBENZ[A]ANTHRACENE, 16238-56-5, Dose [Inhibitor]: 100 UG IN 0.2 ML ACETONE ONCE 5 MIN BEFORE CARCINOGEN TREATMENT (STUDY DURATION: 31 WK), Strain/Sex: CD-1/FEMALE, Dose [Carcinogen]: 600 NMOL IN 0.2 ML ACETONE ONCE) of the same compound?
The value was 96%, 72%, 25%, not calculated.

What about the “tumour outcome (control, treated, inhibition, significance)” value (Carcinogen: 7-FORMYL-12-METHYLBENZ[A]ANTHRACENE, 13345-61-4, Dose [Inhibitor]: 100 UG IN 0.2 ML ACETONE ONCE 5 MIN BEFORE CARCINOGEN TREATMENT (STUDY DURATION: 31 WK), Strain/Sex: CD-1/FEMALE, Dose [Carcinogen]: 740 NMOL IN 0.2 ML ACETONE ONCE) of the same compound?
Its value is 84%, 63%, 25%, not calculated.

And the “tumour outcome (control, treated, inhibition, significance)” value (Carcinogen: 7-HYDROXYMETHYL-12-METHYLBENZ[A]ANTHRACENE, 568-75-2, Dose [Inhibitor]: 100 UG IN 0.2 ML ACETONE ONCE 5 MIN BEFORE CARCINOGEN TREATMENT (STUDY DURATION: 31 WK), Strain/Sex: CD-1/FEMALE, Dose [Carcinogen]: 400 NMOL IN 0.2 ML ACETONE ONCE)?
Its value is 48%, 52%, -8%, not calculated.

And the “tumour outcome (control, treated, inhibition, significance)” value (Carcinogen: 12-BROMOMETHYL-7-METHYLBENZ[A]ANTHRACENE, 59230-81-8, Dose [Inhibitor]: 100 UG IN 0.2 ML ACETONE ONCE 5 MIN BEFORE CARCINOGEN TREATMENT (STUDY DURATION: 31 WK), Strain/Sex: CD-1/FEMALE, Dose [Carcinogen]: 600 NMOL IN 0.2 ML ACETONE ONCE)?
The value was 87%, 74%, 15%, not calculated.

And the “tumour outcome (control, treated, inhibition, significance)” value (Carcinogen: BENZO[A]PYRENE, 50-32-8, Dose [Inhibitor]: 10 UG IN 0.2 ML ACETONE ONCE 5 MINUTES BEFORE CARCINOGEN TREATMENT (STUDY DURATION: 31 WK), Strain/Sex: CD-1/FEMALE, Dose [Carcinogen]: 400 NMOL IN 0.2 ML ACETONE ONCE)?
The value was 90%, 90%, 0%, not calculated.

And the “tumour outcome (control, treated, inhibition, significance)” value (Carcinogen: BENZO[A]PYRENE, 50-32-8, Dose [Inhibitor]: 100 UG IN 0.2 ML ACETONE ONCE 5 MINUTES BEFORE CARCINOGEN TREATMENT (STUDY DURATION: 31 WK), Strain/Sex: CD-1/FEMALE, Dose [Carcinogen]: 400 NMOL IN 0.2 ML ACETONE ONCE)?
The value was 90%, 80%, 11%, not calculated.

What about the “tumour outcome (control, treated, inhibition, significance)” value (Carcinogen: BENZO[A]PYRENE, 50-32-8, Dose [Inhibitor]: 200 UG IN 0.2 ML ACETONE ONCE 5 MINUTES BEFORE CARCINOGEN TREATMENT (STUDY DURATION: 31 WK), Strain/Sex: CD-1/FEMALE, Dose [Carcinogen]: 400 NMOL IN 0.2 ML ACETONE ONCE) of the same compound?
Its value is 90%, 77%, 14%, not calculated.

And the “tumour outcome (control, treated, inhibition, significance)” value (Carcinogen: DIBENZO[A,H]ANTHRACENE, 53-70-3, Dose [Inhibitor]: 0, 370 NMOL IN 0.2 ML ACETONE APPLIED 5 MIN PRIOR TO CARCINOGEN (STUDY DURATION: 21 WK), Strain/Sex: SENCAR/FEMALE, Dose [Carcinogen]: 200 NMOL IN 0.2 ML ACETONE ONCE)?
The value was 100%, 77%, 23%, not calculated.

What about the “tumour outcome (control, treated, inhibition, significance)” value (Carcinogen: DIBENZO[A,H]ANTHRACENE, 53-70-3, Dose [Inhibitor]: 0, 3700 NMOL IN 0.2 ML ACETONE APPLIED 5 MIN PRIOR TO CARCINOGEN (STUDY DURATION: 21 WK), Strain/Sex: SENCAR/FEMALE, Dose [Carcinogen]: 200 NMOL IN 0.2 ML ACETONE ONCE) of the same compound?
Its value is 100%, 80%, 20%, not calculated.
